# Assay results reported in US8581005B2, “Mitochondrial inhibitors to treat human disease” (Albert Einstein College of Medicine of Yeshiva University, priority 2009, dated 2013).
# Where two headings read alike, the source gives them in different places.
# Legend:
# [1] = system: Sacchromyces cerevisiae strain J47D; assay: In vitro cell proliferation assay (yeast proliferation); type: cell-based; set-up: key to Inhibition of yeast proliferation: (+) Complete inhibition (no proliferation); (−) no inhibition (normal proliferation); (+/−) partial inhibition; (i) compound insoluble
# Method: (§1) Sacchromyces cerevisiae strain J47D in log phase growth, was plated in 96 well dishes at 1.5×10^4 cells/well in YEPD media. Magmas inhibitors were diluted in DMSO and added at various concentrations (range 0 mM to 1 mM) to each well in triplicate at a final DMSC concentration of 1%. Samples were cultured at 30° C. in a Bioscreen C MBR incubator (Growth Curves USA, Piscataway, N.J.) and optical density (OD) readings were measured every 30 minutes for the indicated time in the plots. Cell proliferation data was analyzed and plotted using Microsoft Excel. Standard deviations were smaller than 2% of the mean OD value (n=3), and each experiment was performed at least two independent times.
# Reduced Magmas function caused by siRNA knockdown or by mutations in Magmas causes growth inhibition and cell cycle arrest. To assay whether the compounds were active, their ability to inhibit yeast proliferation was measured. The results obtained in yeast are equivalent to those found in mammalian cells in part because the human homolog is fully functional in yeast and the target region is identical across all eukaryotic species.
# purified mouse Magmas = target: T1, purified mouse Magmas (Mus musculus, UniProt Q9CQV1); assay: Binding to Magmas by fluorescence emission spectrum (tyrosine); details: murine Magmas, FIG. 3B; read-out: calculated Kd
# T1 sequence (Q9CQV1 1-125): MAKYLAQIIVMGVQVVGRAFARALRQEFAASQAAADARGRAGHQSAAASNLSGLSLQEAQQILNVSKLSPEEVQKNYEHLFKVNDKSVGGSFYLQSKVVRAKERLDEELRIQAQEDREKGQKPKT
# Method: (§2) The binding of 9 to both purified yeast and mouse Magmas was evaluated. The fluorescence spectrum of tryptophan was measured for the binding to the yeast target and the fluorescence spectrum of tyrosine was measured for the binding to the murine target. The spectral shift observed at varying concentrations of 9 was used to determine the binding constant (FIG. 3).
# [2] = system: yeast strains containing several different Magmas mutations expressed on a plasmid; assay: Yeast proliferation assay with Magmas mutations and over-expression; type: cell-based
# Excerpt: Mutations in Magmas were introduced by error prone PCR and the changes were identified by sequencing. Only genes with a single amino acid change were further analyzed. The genes encoding the mutations were spliced into plasmid pRS315 containing the selectable […] marker (leu) and transfected into yeast where the wt genomic copy was replaced by a his cassette and the essential Magmas activity was maintained by wt Magmas in the plasmid pRS316 (ura). The plasmid containing the wt Magmas gene was lost by selection in media containing FOA, resulting in yeast strains only expressing the mutant gene. Total yeast protein from each of the strains was separated by SDS-PAGE, and transferred to nitrocellulose membranes. The membranes were sequentially incubated with rabbit anti-Magmas antibody, HRP conjugated goat anti-rabbit antibody and chemiluminescence reagent. The signal was captured with a Fujifilm LAS-3000 Imager and the data analyzed with ImageGage software.
# as §1
# All of these stains express similar levels of Magmas protein, which is approximately 4 fold higher than the haploid control (Wt genomic).
# HeLa cells = assay: Mitotracker Red mitochondrial activity; type: cell-based; details: 6 μM for 12 hours
# Method: HeLa cells were treated with 6 μM Compound 9 for 12 hours. The cells were then incubated with Mitotracker Red (100 nM) for 15 minutes, washed, fixed with formaldehyde, and examined by fluorescent microscopy. […] This confirms that the invention affects mitochondrial activity.
# Pfeiffer = assay: Viability of human cells, trypan blue dye exclusion; type: cell-based; set-up: key: (+) Viable; (−) dead; (+/−) partial viability; details: 48 hrs
# Method: (§3) Cell lines derived from human hematological malignancies and glioblastoma multiforme, and human umbilical vascular endothelial cells (HUVEC) were cultured in standard media with the concentrations of 9 indicated in Table 3. Viable cells were scored by trypan blue dye exclusion at 48 hrs. The HUVEC population consisted of a pool of primary cells isolated from the blood vessels of 4 umbilical cords. Each cell type was tested in duplicate in at least three independent experiments.
# U87 = assay: as above; type: cell-based; set-up: key: (+) Viable; (−) dead; (+/−) partial viability; details: 48 hrs
# Method: as §3
# Karpas = assay: as above; type: cell-based; set-up: key: (+) Viable; (−) dead; (+/−) partial viability; details: 48 hrs
# Method: as §3
# Toledo = assay: as above; type: cell-based; set-up: key: (+) Viable; (−) dead; (+/−) partial viability; details: 48 hrs
# Method: as §3
# K562 = assay: as above; type: cell-based; set-up: key: (+) Viable; (−) dead; (+/−) partial viability; details: 48 hrs
# Method: as §3
# U118 = assay: as above; type: cell-based; set-up: key: (+) Viable; (−) dead; (+/−) partial viability; details: 48 hrs
# Method: as §3
# purified yeast Magmas = target: T2, purified yeast Magmas (Saccharomyces cerevisiae, UniProt P42949); assay: Binding to Magmas by fluorescence emission spectrum (tryptophan)
# T2 sequence (P42949 1-149): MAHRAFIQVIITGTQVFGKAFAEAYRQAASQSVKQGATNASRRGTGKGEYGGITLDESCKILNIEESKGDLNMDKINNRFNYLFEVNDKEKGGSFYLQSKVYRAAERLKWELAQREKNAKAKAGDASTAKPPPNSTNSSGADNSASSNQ
# Method: as §2
# HUVEC = assay: Viability of human cells, trypan blue dye exclusion; type: cell-based; set-up: key to viability of human cells: (+) Viable; (−) dead; (+/−) partial viability; details: for viability of human cells: HUVEC, 48 hrs
# Method: as §3
structure (smiles),measurement,setting,value
c1ccc(C2=Nc3ccccc3OC2)cc1 [Compound 1],Effect on yeast proliferation,[1]; doses up to and including 6 μM,not effective
O=[N+]([O-])c1ccc2c(c1)N=C(c1ccccc1)CO2 [Compound 2],Effect on yeast proliferation,[1]; doses up to and including 6 μM,not effective
Clc1ccc2c(c1)N=C(c1ccccc1)CO2 [Compound 3],Effect on yeast proliferation,[1]; doses up to and including 6 μM,not effective
Clc1ccc2c(c1)C=CC(c1ccccc1)O2 (stereo not drawn) [Compound 4],Inhibition of yeast proliferation,[1]; 1 μM,−
same,Inhibition of yeast proliferation,[1]; 10 μM,−
same,Inhibition of yeast proliferation,[1]; 100 μM,+
same,Inhibition of yeast proliferation,[1]; 1 mM,i
O=[N+]([O-])c1ccc2c(c1)C=CC(c1ccccc1)O2 (stereo not drawn) [Compound 5],Inhibition of yeast proliferation,[1]; 1 μM,−
same,Inhibition of yeast proliferation,[1]; 10 μM,−
same,Inhibition of yeast proliferation,[1]; 100 μM,−
same,Inhibition of yeast proliferation,[1]; 1 mM,−
same,Effect on yeast proliferation,[1]; all concentrations,inactive
Brc1ccc2c(c1)C=CC(c1ccccc1)O2 (stereo not drawn) [Compound 6],Inhibition of yeast proliferation,[1]; 1 μM,−
same,Effect on yeast proliferation,[1]; 10 μM,partially inhibitory
same,Inhibition of yeast proliferation,[1]; 10 μM,+/−
same,Inhibition of yeast proliferation,[1]; 100 μM,+
same,Inhibition of yeast proliferation,[1]; 1 mM,+
Oc1cccc2c1OC(c1ccccc1)C=C2 (stereo not drawn) [Compound 7],Effect on yeast proliferation,[1]; doses up to and including 6 μM,not effective
CCCCCCCCC1C=Cc2cc([N+](=O)[O-])ccc2O1 (stereo not drawn) [Compound 8],Inhibition of yeast proliferation,[1]; 1 μM,−
same,Inhibition of yeast proliferation,[1]; 10 μM,−
same,Inhibition of yeast proliferation,[1]; 100 μM,+
same,Inhibition of yeast proliferation,[1]; 1 mM,i
CCC1=C(C)/C(=C/c2ccc(C(=O)NC(=N)N)cc2)CCC1(C)C [Compound 9],Kd,purified mouse Magmas,36 µM
same,Sensitivity of yeast to Compound 9,[2]; Magmas A104S,increased sensitivity
same,Sensitivity of yeast to Compound 9,[2]; Magmas N84T vs Wt plasmid,increased resistance
same,Sensitivity of yeast to Compound 9,[2]; over-expression of Magmas: Wt plasmid vs Wt genomic,reduces sensitivity
same,Mitotracker Red intensity,HeLa cells,reduced
same,viability of human cells,Pfeiffer; 2 um,+/−
same,viability of human cells,Pfeiffer; 4 um,+/−
same,viability of human cells,Pfeiffer; 6 um,−
same,viability of human cells,Pfeiffer; 8 um,−
same,viability of human cells,Pfeiffer; 12 um,−
same,viability of human cells,Pfeiffer; 16 um,−
same,viability of human cells,Pfeiffer; 20 um,−
same,viability of human cells,Pfeiffer; 24 um,−
same,viability of human cells,"U87; U87, 2 um",+/−
same,viability of human cells,"U87; U87, 4 um",+/−
same,viability of human cells,"U87; U87, 6 um",−
same,viability of human cells,"U87; U87, 8 um",−
same,viability of human cells,"U87; U87, 12 um",−
same,viability of human cells,"U87; U87, 16 um",−
same,viability of human cells,"U87; U87, 20 um",−
same,viability of human cells,"U87; U87, 24 um",−
same,viability of human cells,Karpas; 2 um,+/−
same,viability of human cells,Karpas; 4 um,+/−
same,viability of human cells,Karpas; 6 um,+/−
same,viability of human cells,Karpas; 8 um,−
same,viability of human cells,Karpas; 12 um,−
same,viability of human cells,Karpas; 16 um,−
same,viability of human cells,Karpas; 20 um,−
same,viability of human cells,Karpas; 24 um,−
same,viability of human cells,Toledo; 2 um,+/−
same,viability of human cells,Toledo; 4 um,+/−
same,viability of human cells,Toledo; 6 um,−
same,viability of human cells,Toledo; 8 um,−
same,viability of human cells,Toledo; 12 um,−
same,viability of human cells,Toledo; 16 um,−
same,viability of human cells,Toledo; 20 um,−
same,viability of human cells,Toledo; 24 um,−
same,viability of human cells,"K562; K562, 2 um",+/−
same,viability of human cells,"K562; K562, 4 um",+/−
same,viability of human cells,"K562; K562, 6 um",−
same,viability of human cells,"K562; K562, 8 um",−
same,viability of human cells,"K562; K562, 12 um",−
same,viability of human cells,"K562; K562, 16 um",−
same,viability of human cells,"K562; K562, 20 um",−
same,viability of human cells,"K562; K562, 24 um",−
same,viability of human cells,"U118; U118, 2 um",+/−
same,viability of human cells,"U118; U118, 4 um",−
same,viability of human cells,"U118; U118, 6 um",−
same,viability of human cells,"U118; U118, 8 um",−
same,viability of human cells,"U118; U118, 12 um",−
same,viability of human cells,"U118; U118, 16 um",−
same,viability of human cells,"U118; U118, 20 um",−
same,viability of human cells,"U118; U118, 24 um",−
same,Kd,"purified yeast Magmas; yeast Magmas, FIG. 3A, read-out: calculated Kd",33 µM
same,Kd,"purified yeast Magmas; yeast target, read-out: binding constant",34 ± 2 µM
same,viability of human cells,HUVEC; 2 um,+
same,viability of human cells,HUVEC; 4 um,+
same,viability of human cells,HUVEC; 6 um,+
same,viability of human cells,HUVEC; 8 um,+
same,viability of human cells,HUVEC; 12 um,+
same,viability of human cells,HUVEC; 16 um,+
same,viability of human cells,HUVEC; 20 um,+/−
same,viability of human cells,HUVEC; 24 um,−
same,sensitivity of tumor cell lines relative to normal primary cells (HUVEC),"HUVEC; tumor cell lines vs HUVEC, viability at 48 hrs",4 to 5 fold
same,Inhibition of yeast proliferation,[1]; 1 μM,−
same,Effect on yeast proliferation,[1]; 4 μM,significant and reproducible inhibition
same,lengthening of the time to half maximal growth,[1]; 4 μM,1.8 times
same,Effect on yeast proliferation,[1]; 10 μM,fully inhibited growth
same,Inhibition of yeast proliferation,[1]; 10 μM,+
same,Inhibition of yeast proliferation,[1]; 100 μM,+
same,Inhibition of yeast proliferation,[1]; 1 mM,+
